# Source: ChEMBL document CHEMBL3621133, “Macrocyclic derivatives of 6-methyluracil as ligands of the peripheral anionic site of acetylcholinesterase” (Medchemcomm, 2014)
# Key:
# [1] = tested on: Rattus norvegicus; assay: […] in muscle action potential decrement in rat experimental autoimmune model of myasthenia gravis at 0.004 mg/kg, ip (reference value: 67.3 +/- 2.7%); assay type: functional
# [2] = target: T1, Acetylcholinesterase (Homo sapiens, UniProt P22303); assay: Inhibition of AChE from human erythrocytes
# [3] = Toxicity in ip dosed rat; assay type: organism-based; details: in vivo
# [4] = target: Cholinesterase (Homo sapiens, UniProt P06276); assay: Inhibition of BChE from human plasma
# [5] = tested on: Rattus norvegicus; assay: […] in muscle action potential decrement in rat experimental autoimmune model of myasthenia gravis at 0.008 mg/kg, ip (reference value: 67.3 +/- 2.7%); assay type: functional
# [6] = target: T1, Acetylcholinesterase; assay: Reversible inhibition of AChE from human erythrocytes by Lineweaver-Burk plot
# [7] = tested on: Rattus norvegicus; assay: […] in muscle action potential decrement in rat experimental autoimmune model of myasthenia gravis at 0.1 mg/kg, ip (reference value: 67.3 +/- 2.7%); assay type: functional
# [8] = tested on: Rattus norvegicus; assay: […] in muscle action potential decrement in rat experimental autoimmune model of myasthenia gravis at 0.3 mg/kg, ip (reference value: 67.3 +/- 2.7%); assay type: functional
# T1 sequence (P22303 whole entry): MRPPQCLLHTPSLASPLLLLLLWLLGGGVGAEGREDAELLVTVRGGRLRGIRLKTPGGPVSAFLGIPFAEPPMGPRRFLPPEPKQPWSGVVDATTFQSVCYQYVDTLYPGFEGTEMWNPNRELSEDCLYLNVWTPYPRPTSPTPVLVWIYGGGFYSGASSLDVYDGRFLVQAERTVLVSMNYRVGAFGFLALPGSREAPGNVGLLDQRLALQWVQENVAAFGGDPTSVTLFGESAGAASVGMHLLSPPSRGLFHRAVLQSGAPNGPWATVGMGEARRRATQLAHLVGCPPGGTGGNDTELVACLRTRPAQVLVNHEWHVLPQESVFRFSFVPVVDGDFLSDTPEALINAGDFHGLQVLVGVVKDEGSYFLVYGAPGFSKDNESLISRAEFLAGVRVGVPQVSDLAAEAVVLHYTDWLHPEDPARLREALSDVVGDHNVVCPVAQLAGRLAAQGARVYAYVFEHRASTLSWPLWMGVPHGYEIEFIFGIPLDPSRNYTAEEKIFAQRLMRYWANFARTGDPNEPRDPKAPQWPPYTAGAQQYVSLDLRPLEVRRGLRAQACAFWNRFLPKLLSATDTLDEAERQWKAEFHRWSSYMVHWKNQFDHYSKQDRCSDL
# Cholinesterase, sequence (P06276 whole entry): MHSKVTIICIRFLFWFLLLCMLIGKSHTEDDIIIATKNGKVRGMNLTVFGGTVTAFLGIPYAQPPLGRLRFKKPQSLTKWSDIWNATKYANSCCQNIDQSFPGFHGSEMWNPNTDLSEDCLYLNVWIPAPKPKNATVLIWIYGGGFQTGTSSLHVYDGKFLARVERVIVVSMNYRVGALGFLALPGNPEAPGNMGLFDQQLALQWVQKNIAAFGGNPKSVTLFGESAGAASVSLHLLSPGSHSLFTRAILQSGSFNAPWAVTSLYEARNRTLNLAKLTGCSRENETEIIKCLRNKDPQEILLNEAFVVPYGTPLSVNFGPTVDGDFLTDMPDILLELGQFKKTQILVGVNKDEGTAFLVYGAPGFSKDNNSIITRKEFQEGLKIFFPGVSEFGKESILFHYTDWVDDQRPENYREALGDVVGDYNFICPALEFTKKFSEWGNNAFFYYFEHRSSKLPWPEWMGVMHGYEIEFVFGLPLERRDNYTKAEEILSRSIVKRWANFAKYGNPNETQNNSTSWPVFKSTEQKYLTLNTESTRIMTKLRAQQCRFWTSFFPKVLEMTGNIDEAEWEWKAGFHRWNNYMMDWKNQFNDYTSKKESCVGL
SMILES,Activity [1],IC50 [2],LD50 [3],IC50 [4],Activity [5],Ki [6],Activity [7],Activity [8]
CC[N+](CC)(CCCCCn1c(C)cc(=O)n(CCCCC[N+](CC)(CC)Cc2ccccc2[N+](=O)[O-])c1=O)Cc1ccccc1[N+](=O)[O-].[Br-].[Br-],83.25%,0.14 nM,0.008 mg/kg,10000 nM,95.41%,0.08 nM,,
CC[N+]1(Cc2ccccc2[N+](=O)[O-])CCCCCC[N+](CC)(Cc2ccccc2[N+](=O)[O-])CCCCCn2c(=O)cc(C)n(c2=O)CCCCC1 (stereo not given),,59 nM,,9200 nM,,,,
CC[N+]1(Cc2ccccc2[N+](=O)[O-])CCCCCn2c(C)cc(=O)n(c2=O)CCCCC[N+](CC)(Cc2ccccc2[N+](=O)[O-])Cc2ccc(cc2)C1.[Br-].[Br-] (stereo not given),,7 nM,15.5 mg/kg,1200 nM,,50.1 nM,75%,95.4%
CC[N+]1(Cc2ccccc2[N+](=O)[O-])CCCCCn2c(C)cc(=O)n(c2=O)CCCCC[N+](CC)(Cc2ccccc2[N+](=O)[O-])CCCCCn2c(=O)cc(C)n(c2=O)CCCCC1 (stereo not given),,130 nM,,10000 nM,,,,
CC[N+]1(Cc2ccccc2[N+](=O)[O-])CCCCCn2c(C)c3c(=O)n(c2=O)CCCCC[N+](CC)(Cc2ccccc2[N+](=O)[O-])CCCCCn2c(C)c(c(=O)n(c2=O)CCCCC1)C3 (stereo not given),,4000 nM,,20000 nM,,,,
CN(C)C(=O)Oc1ccc[n+](C)c1.[Br-] [PYRIDOSTIGMINE BROMIDE],,,2.7 mg/kg,,,,91.3%,
